From PubChem BioAssay AID2060908 (Molecular Pharmacology Branch, DTP, NCI, 2025)

System: 186277-243-T-J2-PDC complex spheroids, viability
Assay: Anticancer human tumor 186277-243-T-J2-PDC patient-derived colon adenocarcinoma cell line growth inhibition [RAS]
Conditions: for viability, T/C: stronger effect = lower value
From the text: RAS pathway inhibitors in Combinations in Complex Spheroids
A high-throughput screen of multi-cell type tumor spheroids was designed to identify active combinations of RAS pathway inhibitors and targeted small molecules. Complex spheroids include a stromal component modeled by human endothelial cells (HUVEC) and fibroblasts modeled by human mesenchymal stem cells (MSCs). The concentration ranges selected for each drug and investigational agent were based upon clinically achievable concentrations if the clinical Cmax of the agent was known.
Compounds. The drugs and investigational agents: abemaciclib (NSC768073), cobimetinib (NSC768068), divarasib (GDC6063, NSC841802), docetaxel (NSC628503), GDC-1971 (RLY-1971, NSC841576), gemcitabine (NSC613327), inavolisib (NSC800729), ipatasertib (NSC767898), KB-0742 (NSC834161), MRTX-1133 (NSC836407), osimertinib (NSC779217), RMC-4630 (NSC839698), RMC-6236 (NSC851965), RMC-6291 (NSC852671), Ro-3306 (NSC812927), sapanisertib (NSC764658), SN-38 (NSC673596), staurosporine (NSC755774), SY5609 (NSC837396), and tovorafenib (DAY101, NSC766906), were obtained from the National Cancer Institute (NCI) Developmental Therapeutics Program Chemical Repository. The FDA-approved anticancer drug set is available from the NCI Developmental Therapeutics Program. […] The stock solutions were prepared in dimethyl sulfoxide (DMSO, Sigma-Aldrich, St. Louis, MO, cat. D2650) at 800-fold the tested concentration and stored at -70 degrees C prior to their use. All drugs and investigational agents were tested over a range starting from a high concentration at or near the clinical Cmax and decreasing in half-log increments. If the clinical Cmax for an agent had not been determined, the highest concentration tested was 10 microM.
Cell Culture. All cells were maintained in an incubator at 37 degrees C and 5% CO2 with 95% humidity. The PDC lines were cultured according to standard operating procedures established by the NCI PDMR. All PDCs were thawed and cultured in Matrigel-coated flasks prepared with a working solution of 1X Ham's F-12 nutrient mix, without supplementation (Invitrogen, Waltham, MA, cat. 11765054), 100 U/mL penicillin-streptomycin (Invitrogen, cat. 15140122), and 2.5% Matrigel (Corning Inc., Corning, NY, cat. 354248) for the first three passages. The 362531-283-R-J2-PDC and 782815-120-R-J1-PDC lines were cultured in 6C/Colon 1B media, which includes advanced DMEM/F-12 (Thermo Fisher Scientific, cat. 12634028), 10 mM HEPES (Thermo Fisher Scientific, cat. 15630080), 1X GlutaMAX supplement (Thermo Fisher Scientific, cat. 35050061), 0.1 mg/mL primocin (InvivoGen, San Diego, CA, cat. ant-pm-2), 10% defined fetal bovine serum, heat inactivated (HyClone Laboratories Inc., Logan, UT, cat. SH30070.03HI), 50% L-WRN conditioned media (ATCC, cat. CRL-3276), 1.25 mM N-Acetyl-L-cysteine (Sigma-Aldrich, cat. A9165), 10 mM nicotinamide (Sigma-Aldrich, cat. N0636), 1X B-27 supplement (Thermo Fisher Scientific, cat. 17504044), 1X N-2 supplement (Thermo Fisher Scientific, cat. 17502048), 50 ng/mL human EGF (Thermo Fisher Scientific, cat. PHG0311), and 10 microM Y-27632 dihydrochloride (Tocris Bioscience, cat. 1254). The K12877-001-R-J1-PDC line was cultured in 6I media, which includes all 6C/Colon 1B media plus 10 ng/mL human FGF-10 (PeproTech, cat. 100-26), 1 ng/mL human FGF-2 (PeproTech, cat. 100-18B), 1 µM prostaglandin E2 (Tocris Bioscience, cat. 2296), […] hydrocortisone (Sigma-Aldrich, cat. H4001), and […] bovine insulin (Sigma-Aldrich, cat. I6634). The K86415-001-R-J1-PDC line was cultured in 6D media, which includes all 6C/Colon 1B media components minus the L-WRN conditioned media. The 485176-168-R4-J1-PDC was cultured in PANC media, which includes all 6C/Colon 1B media plus 100 ng/mL human FGF-10 (PeproTech, cat. 100-26), 500 nM SB-431542 (Selleckchem, cat. S1067), and 10 nM gastrin (Tocris Bioscience, cat. 3006). […]

[1] = curve of first compound, second compound 0.0316 µM
[2] = curve of first compound, second compound 0.1 µM
[3] = curve of first compound, second compound 0.316 µM
[4] = curve of first compound, second compound 1 µM
[5] = second compound 0.0316 µM, first compound 0.0316 µM
[6] = second compound 0.0316 µM, first compound 0.1 µM
[7] = second compound 0.0316 µM, first compound 0.316 µM
[8] = second compound 0.0316 µM, first compound 1 µM
[9] = second compound 0.1 µM, first compound 0.0316 µM
[10] = second compound 0.1 µM, first compound 0.1 µM
[11] = second compound 0.1 µM, first compound 0.316 µM
[12] = second compound 0.1 µM, first compound 1 µM
[13] = second compound 0.316 µM, first compound 0.0316 µM
[14] = second compound 0.316 µM, first compound 0.1 µM
[15] = second compound 0.316 µM, first compound 0.316 µM
[16] = second compound 0.316 µM, first compound 1 µM
[17] = second compound 1 µM, first compound 0.0316 µM
[18] = second compound 1 µM, first compound 0.1 µM
[19] = second compound 1 µM, first compound 0.316 µM
[20] = second compound 1 µM, first compound 1 µM
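Also: spheroids exposed to compounds for 7 days before viability read.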

CCn1c(-c2cc(N3CCN(C)CC3)cnc2C(C)OC)c2c3cc(ccc31)-c1csc(n1)CC(NC(=O)C1CC1C)C(=O)N1CCCC(N1)C(=O)OCC(C)(C)C2 (configuration not stated)
viability, T/C (compound 0.000949 µM): 105% [middle of 8 runs]
viability, T/C (compound 0.00949 µM): 55.2% [middle of 8 runs]
viability, T/C (compound 0.03 µM): 15.2% [middle of 8 runs]
viability, T/C (compound 0.0949 µM): 7.7% [middle of 7 runs]
viability, T/C (compound 0.3 µM): 6.43% [middle of 8 runs]
IC50 (compound alone, run of 05/20/2024): 10.4 nM [middle of 8 runs]

C#Cc1c(F)ccc2cc(O)cc(-c3ncc4c(N5CC6CCC(C5)N6)nc(OCC56CCCN5CC(F)C6)nc4c3F)c12 (configuration not stated)
viability, T/C (compound 0.0316 µM): 70% [middle of 8 runs]
viability, T/C (compound 0.1 µM): 62.6% [middle of 8 runs]
viability, T/C (compound 0.316 µM): 32.4% [middle of 8 runs]
viability, T/C (compound 1 µM): 18.4% [middle of 8 runs]
viability, T/C (compound 3.16 µM): 12.2% [middle of 8 runs]
viability, T/C (compound 10 µM): 10.1% [middle of 8 runs]
IC50 (compound alone, run of 06/10/2024): 160 nM [middle of 8 runs]

CC(C)NCC(C(=O)N1CCN(c2ncnc3c2C(C)CC3O)CC1)c1ccc(Cl)cc1 (configuration not stated) + C#Cc1c(F)ccc2cc(O)cc(-c3ncc4c(N5CC6CCC(C5)N6)nc(OCC56CCCN5CC(F)C6)nc4c3F)c12
IC50 [1]: 244 nM
IC50 [2]: 117 nM
IC50 [3]: < 31.6 nM
IC50 [4]: < 31.6 nM
IC50 (curve of first compound, second compound 3.16 µM): < 31.6 nM
IC50 (curve of first compound, second compound 10 µM): < 31.6 nM
viability, T/C [5]: 74.3%
viability, T/C [6]: 76.1%
viability, T/C [7]: 40.8%
viability, T/C [8]: 20.5%
viability, T/C (second compound 0.0316 µM, first compound 3.16 µM): 10.6%
viability, T/C (second compound 0.0316 µM, first compound 10 µM): 7.17%
viability, T/C [9]: 55.4%
viability, T/C [10]: 55.4%
viability, T/C [11]: 29.3%
viability, T/C [12]: 12%
viability, T/C (second compound 0.1 µM, first compound 3.16 µM): 6.43%
viability, T/C (second compound 0.1 µM, first compound 10 µM): 4.17%
viability, T/C [13]: 28.8%
viability, T/C [14]: 26.3%
viability, T/C [15]: 13.1%
viability, T/C [16]: 5.77%
viability, T/C (second compound 0.316 µM, first compound 3.16 µM): 3.93%
viability, T/C (second compound 0.316 µM, first compound 10 µM): 2.95%
viability, T/C [17]: 17.7%
viability, T/C [18]: 14.4%
viability, T/C [19]: 10.1%
viability, T/C [20]: 5.25%
viability, T/C (second compound 1 µM, first compound 3.16 µM): 4.08%
viability, T/C (second compound 1 µM, first compound 10 µM): 2.03%
viability, T/C (second compound 3.16 µM, first compound 0.0316 µM): 12.4%
viability, T/C (second compound 3.16 µM, first compound 0.1 µM): 11.2%
viability, T/C (second compound 3.16 µM, first compound 0.316 µM): 9.1%
viability, T/C (second compound 3.16 µM, first compound 1 µM): 3.67%
viability, T/C (second compound 3.16 µM, first compound 3.16 µM): 2.83%
viability, T/C (second compound 3.16 µM, first compound 10 µM): 2.07%
viability, T/C (second compound 10 µM, first compound 0.0316 µM): 8.59%
viability, T/C (second compound 10 µM, first compound 0.1 µM): 9.81%
viability, T/C (second compound 10 µM, first compound 0.316 µM): 5.65%
viability, T/C (second compound 10 µM, first compound 1 µM): 3.64%
viability, T/C (second compound 10 µM, first compound 3.16 µM): 2.9%
viability, T/C (second compound 10 µM, first compound 10 µM): 0.94%

CCN1CCN(Cc2ccc(Nc3ncc(F)c(-c4cc(F)c5nc(C)n(C(C)C)c5c4)n3)nc2)CC1 + C=CC(=O)N1CCN(c2nc(OCC3CCCN3C)nc3c(F)c(-c4nc(N)cc(C)c4C(F)(F)F)c(Cl)cc23)C(C)C1
IC50 (curve of first compound, second compound 0.00316 µM): > 1000 nM
IC50 (curve of first compound, second compound 0.01 µM): > 1000 nM
IC50 [1]: > 1000 nM
IC50 [2]: > 1000 nM
IC50 [3]: > 1000 nM
IC50 [4]: > 1000 nM
viability, T/C (second compound 0.00316 µM, first compound 0.00316 µM): 136%
viability, T/C (second compound 0.00316 µM, first compound 0.01 µM): 129%
viability, T/C (second compound 0.00316 µM, first compound 0.0316 µM): 141%
viability, T/C (second compound 0.00316 µM, first compound 0.1 µM): 114%
viability, T/C (second compound 0.00316 µM, first compound 0.316 µM): 125%
viability, T/C (second compound 0.00316 µM, first compound 1 µM): 99.5%
viability, T/C (second compound 0.01 µM, first compound 0.00316 µM): 87.9%
viability, T/C (second compound 0.01 µM, first compound 0.01 µM): 108%
viability, T/C (second compound 0.01 µM, first compound 0.0316 µM): 127%
viability, T/C (second compound 0.01 µM, first compound 0.1 µM): 99.7%
viability, T/C (second compound 0.01 µM, first compound 0.316 µM): 121%
viability, T/C (second compound 0.01 µM, first compound 1 µM): 92.9%
viability, T/C (second compound 0.0316 µM, first compound 0.00316 µM): 94.6%
viability, T/C (second compound 0.0316 µM, first compound 0.01 µM): 107%
viability, T/C [5]: 119%
viability, T/C [6]: 154%
viability, T/C [7]: 114%
viability, T/C [8]: 101%
viability, T/C (second compound 0.1 µM, first compound 0.00316 µM): 101%
viability, T/C (second compound 0.1 µM, first compound 0.01 µM): 112%
viability, T/C [9]: 142%
viability, T/C [10]: 149%
viability, T/C [11]: 138%
viability, T/C [12]: 79.3%
viability, T/C (second compound 0.316 µM, first compound 0.00316 µM): 90.3%
viability, T/C (second compound 0.316 µM, first compound 0.01 µM): 106%
viability, T/C [13]: 117%
viability, T/C [14]: 115%
viability, T/C [15]: 152%
viability, T/C [16]: 97.8%
viability, T/C (second compound 1 µM, first compound 0.00316 µM): 117%
viability, T/C (second compound 1 µM, first compound 0.01 µM): 112%
viability, T/C [17]: 122%
viability, T/C [18]: 140%
viability, T/C [19]: 135%
viability, T/C [20]: 105%
